The source of these data is patent US20170088822A1 (priority 2015, published 2017).

Assay [1] deals with BpmFabI. Type of assay: biochemical, Burkholderia pseudomallei.
Assay [2] has as its system BpmFabI. The assay is classed as binding, Burkholderia pseudomallei.
In the next assay the test system is S. aureus. Particulars: cited from earlier work.
Assay [3] deals with drug resistant staphylococci including MRSA and MRSE. Particulars: cited from earlier work.

“And” between values parts separate entries of the source, which are not always exact repeats. Equal values may be shown once.

Regarding AFN-1252, in the assay on BpmFabI [1], the “Mechanism of inhibition with respect to NADH (Lineweaver-Burk)” value was “mixed inhibition” and the “Mechanism of inhibition with respect to crotonyl-CoA (Lineweaver-Burk)” value is “uncompetitive”. Also, the IC50 in the assay with BpmFabI [1] (read-out: IC50 for inhibition of BpmFabI) worked out at 9.6 nM. The ΔTm with BpmFabI [2] is 12.76 ± 1.26 °C and 11.61 ± 0.10 °C. The MIC50 in the assay on S. aureus was 2 to 120 ng/mL. In addition, the “Activity against drug resistant staphylococci” value in assay [3] was “potent”.

A word on the IC50: it is the concentration that gives 50% inhibition. As a reminder, the ΔTm is the shift of the melting midpoint relative to a reference. By MIC50 is commonly meant an inhibitory concentration at the 50% level, which refers to growth in some studies and to a panel of isolates in others.
